Test results reported in patent publication US12227500B2, “Substituted pyrrolo[2,3-b]pyridines for suppressing toxic endoplasmic reticulum stress” (THE TRUSTEES OF COLUMBIA UNIVERSITY IN THE CITY OF NEW YORK, priority 2018, dated 2025).
Several values for one entry are separate records, joined by “and”; a condition that tells them apart may be missing. Identical values can stand only once. Like-named read-outs stand apart in the source and are kept apart here.

Tests used:
[1] = system: human ES motor neurons carrying the ALS-causing SOD1^A4V mutation; assay: cells; type: cell-based; conditions: Homo sapiens, Neuron, 72 h, CPA 33 μM, 72 h
Procedure: Next, survival assays were performed with all the analogs at once to generate a low-variability dataset. All compounds were evaluated at concentrations ranging from 0.1-3.0 μM (five-point dilution) in three technical replicates and two biological replicates.

[2] = Plasma and brain concentration 30 min after IP injection; type: in vivo, mouse; conditions: male, C57BL6/J, mouse, mice, ip dosing, 30 minutes; for Kp at 30 min: brain/plasma, read-out: B/P
Procedure: All studies were performed on 6-week old male C57BL6/J mice that were housed in the Columbia University Medical Center facility in a 12h light/dark cycle with access to food and water ad libitum. All animal procedures were approved by the Columbia University IACUC. […] Animals were weighed and injected once intraperitoneally (IP) at the indicated dose (10 or 20 mg/kg). After 30 min, animals were deeply anesthetized with 2.5% Avertin. Whole blood was collected by cardiac puncture in tubes containing 0.5M EDTA as an anticoagulant, and centrifuged for 10 min at 845 rcf at 4° to isolate plasma. Following cardiac puncture, animals were decapitated and brains were dissected and weighed. Brain samples were homogenized with a glass dounce homogenizer in 5 volumes of ddH2O. Brain and plasma samples were snap frozen in liquid nitrogen and stored at −80° C. before further processing.
The plasma samples were transferred to Eppendorf tubes (50 μL per sample) and diluted with acetonitrile (200 μL). The samples were sonicated for 1 minute followed by centrifugation at 16,000 rpm for 10 minutes. The supernatant was transferred to another Eppendorf tube and the solvent evaporated overnight. The samples were reconstituted in a mixture of 40 μL acetonitrile and 10 μL water transferred to a sample vial with insert, and analyzed by LC-MS.
The homogenized brain samples (250 μL) were transferred to Eppendorf tubes and diluted with acetonitrile (750 μL). The samples were sonicated for 1 minute followed by centrifugation at 16,000 rpm for 10 minutes. The supernatant (900 μL) was transferred to another Eppendorf tube and the solvent evaporated overnight. The samples were reconstituted in a mixture of 80 μL acetonitrile and 20 μL water, transferred to a sample vial with insert, and analyzed by LC-MS.
LC-MS analysis was performed on a platform comprising a Thermo Scientific Dionex Ultimate 3000 and a Bruker amaZon SL equipped with an electrospray ionization source controlled by Bruker Hystar 3.2. The compound concentration in each plasma sample was determined using a calibration curve. Chromatographic separation was performed by injecting 10 μL of the sample onto an Agilent Eclipse Plus C18 column (2.1×50 mm, 3.5 μm) maintained at 20° C. The flow rate was maintained at 400 μL/min. The initial flow conditions were 60% solvent A (water containing 0.1% acetic acid) and 40% solvent B (methanol containing 0.1% acetic acid). Solvent B was raised to 60% over 0.25 minutes and to 70% by 6.75 minutes.

phospho-cjun = assay: Phospho-cjun in olfactory bulbs after treatment in vivo (western blot); design: species or system mouse; conditions: 10 mg/kg oral gavage
Procedure: Compounds at 10 mg/kg were delivered intraperitoneally (IP), orally, or sub-cutaneously (SC). Animals were sacrificed 1 h after treatment. Their olfactory bulbs were dissected and lysed for western blot analysis. Phospho-cjun expression was normalized to the housekeeping protein GAPDH.
We therefore selected phospho-cjun as a marker of target engagement for further in vivo studies. C-jun is highly expressed throughout the murine central nervous system, especially in the olfactory bulbs. […] Animals were then sacrificed after 1 h, and their olfactory bulbs were sub-dissected and lysed for further western blot analysis. Samples were probed with an antibody specific to phosphorylated c-jun (at serine 63; cell signaling) and normalized to the housekeeping gene GAPDH.

[3] = system: human stem cell-derived motor neurons derived from a healthy patient
NUAK1 = NUAK1 (Homo sapiens, UniProt O60285); conditions: cited from earlier work
NUAK1, sequence (O60285 whole entry, species assumed): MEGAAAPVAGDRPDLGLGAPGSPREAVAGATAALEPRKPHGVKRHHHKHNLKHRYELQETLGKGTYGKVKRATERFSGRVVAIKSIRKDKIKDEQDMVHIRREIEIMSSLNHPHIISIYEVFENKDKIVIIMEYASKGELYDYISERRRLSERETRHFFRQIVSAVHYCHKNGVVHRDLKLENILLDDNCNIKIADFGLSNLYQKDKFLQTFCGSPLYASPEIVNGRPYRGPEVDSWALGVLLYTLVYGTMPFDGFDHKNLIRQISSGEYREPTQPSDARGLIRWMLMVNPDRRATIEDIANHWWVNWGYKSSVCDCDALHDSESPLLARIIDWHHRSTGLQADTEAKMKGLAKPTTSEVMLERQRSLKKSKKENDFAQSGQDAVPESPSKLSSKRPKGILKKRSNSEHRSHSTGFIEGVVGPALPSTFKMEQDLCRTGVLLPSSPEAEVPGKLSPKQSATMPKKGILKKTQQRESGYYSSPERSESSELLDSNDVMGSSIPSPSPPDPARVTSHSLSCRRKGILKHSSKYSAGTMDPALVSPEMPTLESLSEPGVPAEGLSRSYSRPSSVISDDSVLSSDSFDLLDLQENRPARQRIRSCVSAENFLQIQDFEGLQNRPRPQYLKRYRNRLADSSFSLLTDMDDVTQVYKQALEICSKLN

[4] = system: human stem cell-derived motor neurons derived from a healthy patient; assay: CPA survival assay, wild-type human stem cell-derived motor neurons; conditions: 8-point dilution series
human ES motor neurons = assay: Rescue of CPA toxicity by kinase inhibitors in dilution series (FIG. 3); conditions: dilution series, FIG. 3
[5] = system: HB9::GFP-SOD1^+/+ human motor neurons; assay: Rescue of CPA toxicity in human ESC-derived motor neurons, SOD1^+/+; type: cell-based; conditions: WT motor neurons, 33 μM CPA
Source text: (§1) One advantage of the stem cell-derived motor neuron survival assay is that it can be easily extended to human motor neurons. To adapt the assay to human cells, we generated a new isogenic pair of ESC lines derived from a human ESC line expressing GFP under the control of the Hb9 motor neuron promoter (HUES3 HB9::GFP, (Di Giorgio et al. 2008)). […] . The pair of cell lines was differentiated into motor neurons in parallel using previously published protocols (Amoroso et al. 2013; […] .
(§2) Differentiation of human isogenic HUES3 ESC HB9::GFP reporter lines into motor neurons was performed as previously described (Maury et al. 2015). Cells were dissociated on day 16 of differentiation, FACS-sorted and plated on poly-ornithine- and laminin-coated surfaces as above. Serum-free human motor neuron plating media was supplemented with the antimitotic UFdU and the neurotrophic factors GDNF, BDNF, CNTF, and IGF1 (all at 10 ng/mL) as described (Johnson-Kerner et al. 2015).

[6] = system: HB9::GFP-SOD1^+/A4V human motor neurons; assay: Rescue of CPA toxicity in human ESC-derived motor neurons, SOD1^+/A4V; type: cell-based; conditions: SOD1^A4V motor neurons, 33 μM CPA
Source text: as §1, §2

[7] = Solubility of kenpaullone (observation); type: physicochemical
MLK3 = MLK3 (Homo sapiens, UniProt Q16584); conditions: 0.5 μM; Anastassiadis et al. 2011; cited from earlier work
MLK3, sequence (Q16584 whole entry, species assumed): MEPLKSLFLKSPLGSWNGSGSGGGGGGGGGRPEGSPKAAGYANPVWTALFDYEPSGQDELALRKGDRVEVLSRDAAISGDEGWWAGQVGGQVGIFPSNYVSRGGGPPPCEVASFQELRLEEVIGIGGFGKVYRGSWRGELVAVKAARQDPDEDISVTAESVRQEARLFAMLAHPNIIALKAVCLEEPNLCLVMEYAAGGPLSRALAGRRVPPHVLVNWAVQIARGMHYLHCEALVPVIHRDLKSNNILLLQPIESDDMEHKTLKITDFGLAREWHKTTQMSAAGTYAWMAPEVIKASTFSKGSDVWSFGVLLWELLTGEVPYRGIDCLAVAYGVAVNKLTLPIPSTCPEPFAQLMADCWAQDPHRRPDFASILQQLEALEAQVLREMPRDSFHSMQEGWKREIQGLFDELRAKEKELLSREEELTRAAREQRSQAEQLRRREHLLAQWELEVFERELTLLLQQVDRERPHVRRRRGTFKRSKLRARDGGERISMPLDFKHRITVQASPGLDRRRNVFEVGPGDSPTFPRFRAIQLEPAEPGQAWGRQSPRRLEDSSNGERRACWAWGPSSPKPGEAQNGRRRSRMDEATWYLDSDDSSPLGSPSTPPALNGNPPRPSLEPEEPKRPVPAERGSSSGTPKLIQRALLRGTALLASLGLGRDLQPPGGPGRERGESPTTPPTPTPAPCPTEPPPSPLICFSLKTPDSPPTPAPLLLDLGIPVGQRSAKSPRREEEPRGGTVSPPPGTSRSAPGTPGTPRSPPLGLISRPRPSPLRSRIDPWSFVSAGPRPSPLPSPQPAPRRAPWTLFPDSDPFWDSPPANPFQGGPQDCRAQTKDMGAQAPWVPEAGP

hSOD1^G93A mice = assay: TUDCA on neuromuscular junction denervation of tibialis anterior; type: in vivo, mouse; conditions: 0.5 mg/g subcutaneously every three days, P30 to P50
Source text: To test the ability of TUDCA to preserve motor axons in ALS models in vivo, we designed a small-scale study in which we evaluated the denervation of the fast fatigable hind limb muscle tibialis anterior (TA) (FIG. 20D). […]. During this period, the TA muscles display 25-40% denervation before becoming substantially atrophied at later time points. […]. At the end of the experiment, we counted total NMJs by staining for acetylcholine receptors on the TA muscle with Alexa Fluor 488-conjugated α-bungarotoxin, and assessed their innervation by staining for motor axons with antibodies against vesicular acetylcholine […] (VAChT) (FIG. 20F). […].
(2) hSOD1^WT mice receiving 0.5 mg/g TUDCA in 0.01 M PBS subcutaneously to evaluate the mutation-specific effects of NMJ denervation and of the drug; […]. […] Because a lack of co-localization indicated muscle denervation, % NMJ innervation was determined by dividing the total number of areas of overlap between VAChT and BTX signals (total number innervated endplates) by the number of areas containing BTX signal (total number of endplates). One TA was assessed for each animal (n=4-6), with every third section throughout the whole muscle stained and counted such that a minimum of 1000 NMJs were evaluated per animal. Images were acquired using a Nikon Eclipse TE-2000-E fluorescence microscope with a 4× or 10× objective. […]

For `OCCN1CCN(Cc2ccc(-c3cnc4[nH]cc(-c5cccc(F)c5)c4c3)cc2)CC1` [Compound 12h, 2-(4-(4-(3-(3-Fluorophenyl)-1H-pyrrolo[2,3-b]pyridin-5-yl)benzyl)piperazin-1-yl)ethan-1-ol], the EC50 ([1]; read-out: EC50) was 0.1 µM, the Emax ([1]; read-out: Emax (MN survival % untreated)) was 117% and the Kp at 30 min ([2]; 10 mg/kg) was 2. The Kp at 30 min ([2]; 20 mg/kg) was 3.3, the concentration at 30 min ([2]; 10 mg/kg, read-out: brain) was < 500 ng/g and < 1.2 µM and the concentration at 30 min ([2]; 10 mg/kg, read-out: plasma) was < 250 ng/mL and < 580 nM. For the same compound, the concentration at 30 min ([2]; 20 mg/kg, read-out: brain) was 1670 ng/g and 3.88 µM, the concentration at 30 min ([2]; 20 mg/kg, read-out: plasma) was 505 ng/mL and 1.17 µM and the “oral bioavailability (from reduction of cjun phosphorylation after oral gavage)” value (phospho-cjun) was “orally bioavailable”.
For `Cc1nc(Nc2cnn(C3CCNCC3)c2)nc2c1N(C)C(=O)c1cc3ccccc3cc1N2C` [HTH 01-015], the “concentration above which toxic to motor neurons in the absence of CPA” value [3] is given as “above 2 μM”, the IC50 (NUAK1) is given as 0.1 µM and the “rescue of CPA toxicity” value [4] is given as “unable to rescue CPA toxicity”. For the same compound, the “rescue of CPA toxicity” value (human ES motor neurons) was “failed to rescue CPA toxicity”.
With `O=C1Cc2c([nH]c3ccc(Br)cc23)-c2ccccc2N1` [Kenpaullone] the “rescue of CPA-induced cell death” value [5] was 42%, the “rescue of CPA-induced cell death” value [6] was 31% and the “solubility at the concentrations effective in in vitro CPA assays” value [7] was “insoluble”. The MLK3 activity remaining (MLK3) was 49.3%.
For `C[C@H](CCC(=O)NCCS(=O)(=O)O)[C@H]1CC[C@H]2[C@@H]3[C@@H](O)C[C@@H]4C[C@H](O)CC[C@]4(C)[C@H]3CC[C@]12C` [TUDCA, tauroursodeoxycholic acid], the “rescue of CPA-induced cell death” value [5] was 34%, the “rescue of CPA-induced cell death” value [6] was 9% and the “NMJ innervation vs untreated animals” value (hSOD1^G93A mice) was “moderate, but statistically significant increase in NMJ innervation”.
